Assay results from US20240150377A1, “MODULATORS OF CYSTIC FIBROSIS TRANSMEMBRANE CONDUCTANCE REGULATOR” (VERTEX PHARMACEUTICALS INCORPORATED, priority 2020, published 2024).

What follows are molecules tested against T1, CFTR (Homo sapiens, UniProt P13569, DEL508-508) (assay: HBE2 assay: Ussing chamber assay of CFTR-mediated short-circuit currents). Settings: 3 μM corrector; F508del/MF-HBE cells; with 44 nM potentiator, 18-24 hours, 20% human serum.
T1 construct: endogenous in cells; host or cells: primary human bronchial epithelial cells from CF subjects (F508del/MF-HBE), differentiated at air-liquid interface
Assay type: cell-based
Summary of the method: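 Corrector activity read as CFTR-dependent ISC (μA/cm^2): peak forskolin current minus post-inhibitor steady state. Measured at 37 °C, voltage clamp at 0 mV, on F508del/MF-HBE epithelia grown >14 days air-liquid interface in Ussing chambers.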

T1 sequence (P13569 with tags, fused parts or gaps DEL508-508): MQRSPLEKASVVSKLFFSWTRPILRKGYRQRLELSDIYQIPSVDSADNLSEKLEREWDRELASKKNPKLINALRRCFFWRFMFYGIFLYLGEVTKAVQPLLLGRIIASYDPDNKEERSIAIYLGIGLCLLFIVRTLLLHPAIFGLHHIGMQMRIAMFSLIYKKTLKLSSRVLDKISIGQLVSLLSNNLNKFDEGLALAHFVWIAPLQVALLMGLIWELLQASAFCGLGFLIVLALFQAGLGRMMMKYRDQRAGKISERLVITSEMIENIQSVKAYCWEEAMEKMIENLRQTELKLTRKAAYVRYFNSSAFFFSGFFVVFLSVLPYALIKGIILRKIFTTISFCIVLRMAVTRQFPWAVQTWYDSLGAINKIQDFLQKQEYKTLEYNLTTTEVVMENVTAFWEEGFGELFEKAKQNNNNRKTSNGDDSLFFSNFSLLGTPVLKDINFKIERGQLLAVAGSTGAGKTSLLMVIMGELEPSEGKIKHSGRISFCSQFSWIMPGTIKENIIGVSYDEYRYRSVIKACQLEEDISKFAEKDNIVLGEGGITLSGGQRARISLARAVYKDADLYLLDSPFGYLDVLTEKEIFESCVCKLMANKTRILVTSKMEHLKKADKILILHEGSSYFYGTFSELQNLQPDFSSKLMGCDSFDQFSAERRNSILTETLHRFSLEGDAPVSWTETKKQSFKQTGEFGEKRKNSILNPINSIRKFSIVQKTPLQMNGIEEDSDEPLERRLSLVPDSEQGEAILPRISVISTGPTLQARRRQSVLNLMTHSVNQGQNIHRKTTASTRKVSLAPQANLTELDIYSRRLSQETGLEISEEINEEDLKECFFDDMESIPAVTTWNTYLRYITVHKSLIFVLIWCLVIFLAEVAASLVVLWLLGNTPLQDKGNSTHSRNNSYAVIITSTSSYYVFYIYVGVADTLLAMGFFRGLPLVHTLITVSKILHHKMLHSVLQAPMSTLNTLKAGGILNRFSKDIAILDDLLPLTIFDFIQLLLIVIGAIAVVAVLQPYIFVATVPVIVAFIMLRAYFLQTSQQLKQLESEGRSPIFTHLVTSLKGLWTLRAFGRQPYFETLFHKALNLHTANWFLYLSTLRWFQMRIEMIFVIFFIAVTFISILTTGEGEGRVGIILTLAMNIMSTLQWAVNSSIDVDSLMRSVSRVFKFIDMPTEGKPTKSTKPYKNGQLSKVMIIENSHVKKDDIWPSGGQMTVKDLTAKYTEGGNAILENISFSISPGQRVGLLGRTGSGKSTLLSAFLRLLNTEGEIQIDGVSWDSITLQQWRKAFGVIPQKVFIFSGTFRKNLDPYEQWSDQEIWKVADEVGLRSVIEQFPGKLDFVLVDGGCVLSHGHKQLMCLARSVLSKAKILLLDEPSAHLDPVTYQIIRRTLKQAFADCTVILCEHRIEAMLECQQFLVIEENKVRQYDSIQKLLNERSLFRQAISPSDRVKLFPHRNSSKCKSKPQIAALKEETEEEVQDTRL

HBE2 Activity at 3 μM (%), +++ (+++ is >60+):
COC[C@@H]1CCN1c1cncc(CN2C(=O)c3cccc(c3)S(=O)(=O)Nc3nc(cc(-c4c(C)cccc4C)n3)OC[C@H]2CC2CC2)n1 [Compound 1786], Cc1cccc(C)c1-c1cc2nc(n1)NS(=O)(=O)c1cccc(c1)C(=O)N(Cc1cncc(N3CCC[C@H]3C)n1)[C@H](CC1CC1)CO2 [Compound 1787], Cc1cccc(C)c1-c1cc2nc(n1)NS(=O)(=O)c1cccc(c1)C(=O)N(Cc1cncc(N(C)C(C)C)n1)[C@H](CCC(C)(C)C)CO2 [Compound 1788], Cc1cccc(C)c1-c1cc2nc(n1)NS(=O)(=O)c1cccc(c1)C(=O)N(Cc1cccc(N3CCC[C@H]3C)n1)[C@H](CCC(C)(C)C)CO2 [Compound 1789], Cc1cccc(C)c1-c1cc2nc(n1)NS(=O)(=O)c1cccc(c1)C(=O)N(Cc1cccc(N(C)C(C)C)n1)[C@H](CCC(C)(C)C)CO2 [Compound 1790], Cc1cccc(C)c1-c1cc2nc(n1)NS(=O)(=O)c1cccc(c1)C(=O)N(Cc1cncc(N(C)CC(C)C)n1)[C@H](CCC(C)(C)C)CO2 [Compound 1791], Cc1cccc(C)c1-c1cc2nc(n1)NS(=O)(=O)c1cccc(c1)C(=O)N(Cc1cncc(N3CCCC[C@H]3C)n1)[C@H](CC1CC1)CO2 [Compound 1792], Cc1cccc(C)c1-c1cc2nc(n1)NS(=O)(=O)c1cccc(c1)C(=O)N(Cc1cncc(N3CCCC4CCC43)n1)[C@H](CC1(C)CCC1)CO2 (stereo partly shown) [Compound 1793], Cc1cccc(C)c1-c1cc2nc(n1)NS(=O)(=O)c1cccc(c1)C(=O)N(Cc1cncc(N3CCCC4CCC43)n1)[C@H](CC1(C)CCC1)CO2 (stereo partly shown) [Compound 1794], Cc1cccc(C)c1-c1cc2nc(n1)NS(=O)(=O)c1cccc(c1)C(=O)N(Cc1cncc(N(C)CC(C)(C)C)n1)[C@H](CCC(C)C)CO2 [Compound 1795], Cc1cccc(C)c1-c1cc2nc(n1)NS(=O)(=O)c1cccc(c1)C(=O)N(Cc1cncc(N(C)C3CC4(CC4)C3)n1)[C@H](CCC(C)C)CO2 [Compound 1796], Cc1cccc(C)c1-c1cc2nc(n1)NS(=O)(=O)c1cccc(c1)C(=O)N(Cc1cncc(N3CC[C@H]3C(C)C)n1)[C@H](CCC(C)(C)C)CO2 [Compound 1797], Cc1cccc(C)c1-c1cc2nc(n1)NS(=O)(=O)c1cccc(c1)C(=O)N(Cc1cncc(N3C[C@H]4CCCC[C@H]43)n1)[C@H](CC(C)(C)C)CO2 [Compound 1800], Cc1cccc(C)c1-c1cc2nc(n1)NS(=O)(=O)c1cccc(c1)C(=O)N(Cc1cncc(N3CC[C@H]3C)n1)[C@H](CC(C)(C)F)CO2 [Compound 1801], COC[C@@H]1CCN1c1cncc(CN2C(=O)c3cccc(c3)S(=O)(=O)Nc3nc(cc(-c4c(C)cccc4C)n3)OC[C@H]2CC(C)(C)F)n1 [Compound 1802], Cc1cccc(C)c1-c1cc2nc(n1)NS(=O)(=O)c1cccc(c1)C(=O)N(Cc1cncc(N3CCC[C@H]3C)n1)[C@H](CC(C)(C)F)CO2 [Compound 1803], Cc1cccc(C)c1-c1cc2nc(n1)NS(=O)(=O)c1cccc(c1)C(=O)N(Cc1cncc(N(C)C3CCC3)n1)[C@H](CC1CCCCC1)CO2 [Compound 1804], Cc1cccc(C)c1-c1cc2nc(n1)NS(=O)(=O)c1cccc(c1)C(=O)N(Cc1cncc(N3CCCC[C@H]3C)n1)[C@H](CC(C)(C)F)CO2 [Compound 1805], Cc1cccc(C)c1-c1cc2nc(n1)NS(=O)(=O)c1cccc(c1)C(=O)N(Cc1cncc(N(C)C)n1)[C@H](CCC(C)(C)C)CO2 [Compound 1806], CCN(C)c1cncc(CN2C(=O)c3cccc(c3)S(=O)(=O)Nc3nc(cc(-c4c(C)cccc4C)n3)OC[C@H]2CCC(C)(C)C)n1 [Compound 1807], CCN(c1cncc(CN2C(=O)c3cccc(c3)S(=O)(=O)Nc3nc(cc(-c4c(C)cccc4C)n3)OC[C@H]2CCC(C)(C)C)n1)C1CCC1 [Compound 1808], CCN(CC1CC1)c1cncc(CN2C(=O)c3cccc(c3)S(=O)(=O)Nc3nc(cc(-c4c(C)cccc4C)n3)OC[C@H]2CCC(C)(C)C)n1 [Compound 1809], Cc1cccc(C)c1-c1cc2nc(n1)NS(=O)(=O)c1cccc(c1)C(=O)N(Cc1cncc(N(C)CC3CC3)n1)[C@H](CCC(C)(C)C)CO2 [Compound 1810], CCN(CCOC)c1cncc(CN2C(=O)c3cccc(c3)S(=O)(=O)Nc3nc(cc(-c4c(C)cccc4C)n3)OC[C@H]2CCC(C)(C)C)n1 [Compound 1811], COCCN(C)c1cncc(CN2C(=O)c3cccc(c3)S(=O)(=O)Nc3nc(cc(-c4c(C)cccc4C)n3)OC[C@H]2CCC(C)(C)C)n1 [Compound 1812], Cc1cccc(C)c1-c1cc2nc(n1)NS(=O)(=O)c1cccc(c1)C(=O)N(Cc1cncc(N3CCC[C@H]3C3CC3)n1)[C@H](CCC(C)(C)C)CO2 [Compound 1813], Cc1cccc(C)c1-c1cc2nc(n1)NS(=O)(=O)c1cccc(c1)C(=O)N(Cc1cncc(N3CCC[C@H]3C)n1)[C@H](CCC(C)(C)C)CO2 [Compound 1814], Cc1cccc(C)c1-c1cc2nc(n1)NS(=O)(=O)c1cccc(c1)C(=O)N(Cc1cncc(N(C)C3CC(F)(F)C3)n1)[C@H](CCC(C)(C)C)CO2 [Compound 1815], CC[C@@H]1CCCN1c1cncc(CN2C(=O)c3cccc(c3)S(=O)(=O)Nc3nc(cc(-c4c(C)cccc4C)n3)OC[C@H]2CCC(C)(C)C)n1 [Compound 1816], Cc1cccc(C)c1-c1cc2nc(n1)NS(=O)(=O)c1cccc(c1)C(=O)N(Cc1cncc(N(C)C3CC4(CC4)C3)n1)[C@H](CCC(C)(C)C)CO2 [Compound 1817], Cc1cccc(C)c1-c1cc2nc(n1)NS(=O)(=O)c1cccc(c1)C(=O)N(Cc1cncc(N(C)CC(C)(C)F)n1)[C@H](CCC(C)(C)C)CO2 [Compound 1818], Cc1cccc(C)c1-c1cc2nc(n1)NS(=O)(=O)c1cccc(c1)C(=O)N(Cc1cnc3cc(C(C)C)n(C)c3n1)[C@H](CC(C)(C)F)CO2 [Compound 1819], Cc1cccc(C)c1-c1cc2nc(n1)NS(=O)(=O)c1cccc(c1)C(=O)N(Cc1cnc3cc(C(C)C)n(C)c3n1)[C@H](CC1CC1)CO2 [Compound 1820], Cc1cccc(C)c1-c1cc2nc(n1)NS(=O)(=O)c1cccc(c1)C(=O)N(Cc1cncc(N(C)CC(C)C)n1)[C@H](CC1CCCCC1)CO2 [Compound 1821], Cc1cccc(C)c1-c1cc2nc(n1)NS(=O)(=O)c1cccc(c1)C(=O)N(Cc1cncc(N3CCCC[C@H]3C)n1)[C@H](CC1CCCCC1)CO2 [Compound 1822], Cc1cccc(C)c1-c1cc2nc(n1)NS(=O)(=O)c1cccc(c1)C(=O)N(Cc1cncc(N3CC[C@H]3C)n1)[C@H](CC1CCCCC1)CO2 [Compound 1823], Cc1cccc(C)c1-c1cc2nc(n1)NS(=O)(=O)c1cccc(c1)C(=O)N(Cc1cncc(N3CCCC3C(C)C)n1)[C@H](CC1CCCCC1)CO2 (stereo partly shown) [Compound 1824], Cc1cccc(C)c1-c1cc2nc(n1)NS(=O)(=O)c1cccc(c1)C(=O)N(Cc1cncc(N(C)C(C)C)n1)[C@H](CC1CCCCC1)CO2 [Compound 1825], Cc1cccc(C)c1-c1cc2nc(n1)NS(=O)(=O)c1cccc(c1)C(=O)N(Cc1cnc3cc(C(C)C)n(C)c3n1)[C@H](CCC(C)(C)C)CO2 [Compound 1826], Cc1cccc(C)c1-c1cc2nc(n1)NS(=O)(=O)c1cccc(c1)C(=O)N(Cc1cnc3cc(C(C)C)n(C)c3n1)[C@H](CCC(C)C)CO2 [Compound 1827], Cc1cccc(C)c1-c1cc2nc(n1)NS(=O)(=O)c1cccc(c1)C(=O)N(Cc1cnc3cc(C(C)C)n(C)c3n1)[C@H](CCC1CC1)CO2 [Compound 1828], Cc1cccc(C)c1-c1cc2nc(n1)NS(=O)(=O)c1cccc(c1)C(=O)N(Cc1cnc3cc(C(C)C)n(C)c3n1)[C@H](CC1(C)CCC1)CO2 [Compound 1829], Cc1cccc(C)c1-c1cc2nc(n1)NS(=O)(=O)c1cccc(c1)C(=O)N(Cc1cnc3cc(C(C)C)n(C)c3n1)[C@H](CC1CCC1)CO2 [Compound 1830]
